Among the test systems are T-47D breast; U251 CNS; IGROV1 ovarian; OVCAR-5 ovarian; SK-OV-3 ovarian; SK-MEL-5 melanoma; A549 NSCLC; LOX IMVI melanoma; NCI-H460 lung; M14 melanoma; NCI-H23 lung; MDA-N; ACHN renal; UO-31 renal; RPMI-8226 leukemia; MDA-MB-435; PC-3 prostate; SR leukemia; CCRF-CEM leukemia; HCC-2998 colon.
Holding throughout (assay): NCI tumour cell line growth inhibition, 48 h

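Compound exposure: 48 hours, 5 concentrations, 96-well plates. TGI: concentration producing complete growth inhibition.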

As to `CCOC(=O)C1=C(C)NC(=O)N([N+](=O)[O-])C1c1ccccc1C(F)(F)F` (configuration not stated), the TGI in the experiment on T-47D breast, in the experiment with U251 CNS, in the experiment on IGROV1 ovarian, in the experiment on OVCAR-5 ovarian, in the experiment on SK-OV-3 ovarian and with SK-MEL-5 melanoma was above 100 µM throughout. The TGI in the experiment on A549 NSCLC was above 100 µM; with LOX IMVI melanoma, above 100 µM; in the experiment on NCI-H460 lung it was above 100 µM; in the experiment with M14 melanoma, above 100 µM; in the experiment on NCI-H23 lung, above 100 µM; in the experiment on MDA-N, 79.7 µM. Further, the TGI in the experiment on ACHN renal was above 100 µM; in the experiment with UO-31 renal it was above 100 µM; in the experiment with RPMI-8226 leukemia it was 72.4 µM; with MDA-MB-435 it was above 100 µM; in the experiment on PC-3 prostate, above 100 µM; with SR leukemia, above 100 µM. This compound displayed a TGI in the experiment with CCRF-CEM leukemia above 100 µM.

Regarding `Cc1cc(C)nc(NS(=O)(=O)c2ccc(Nc3c4ccccc4nc4c(C(=O)NCCO)cccc34)cc2)n1`, the TGI in the experiment on T-47D breast is above 100 µM; with U251 CNS, above 100 µM; in the experiment with IGROV1 ovarian it was above 100 µM; with OVCAR-5 ovarian it was 91.7 µM; with HCC-2998 colon, 27.8 µM; in the experiment with SK-OV-3 ovarian it was above 100 µM. Also, the TGI with SK-MEL-5 melanoma was 36.6 µM; with A549 NSCLC, above 100 µM; with LOX IMVI melanoma, 25.5 µM; with NCI-H460 lung, above 100 µM; in the experiment with M14 melanoma, 65 µM; in the experiment on NCI-H23 lung, above 100 µM. Further, the TGI is 69.6 µM in the experiment on MDA-N; above 100 µM in the experiment on ACHN renal; 36.5 µM in the experiment on RPMI-8226 leukemia; 40.7 µM in the experiment on MDA-MB-435; above 100 µM in the experiment on PC-3 prostate; 56.1 µM with SR leukemia. Also, the TGI in the experiment with CCRF-CEM leukemia stood at 50.9 µM.

As to `CCOC(=O)c1csc(NC(=O)CCCC#N)n1`, the TGI with T-47D breast, in the experiment on U251 CNS, in the experiment with OVCAR-5 ovarian, with HCC-2998 colon, with SK-OV-3 ovarian and in the experiment with SK-MEL-5 melanoma was above 100 µM in each case. Also, the TGI in the experiment with A549 NSCLC, with LOX IMVI melanoma, with NCI-H460 lung, in the experiment on M14 melanoma, in the experiment with NCI-H23 lung and with MDA-N was above 100 µM each time. Besides, the TGI with ACHN renal, in the experiment on UO-31 renal, with RPMI-8226 leukemia, with MDA-MB-435, with PC-3 prostate and in the experiment on SR leukemia was above 100 µM in each case. Moreover, in the experiment with CCRF-CEM leukemia, the TGI was above 100 µM.

`c1ccc([P+](Cc2csnn2)(c2ccccc2)c2ccccc2)cc1`: the TGI in the experiment on U251 CNS, in the experiment with IGROV1 ovarian, with OVCAR-5 ovarian, in the experiment with HCC-2998 colon, in the experiment with SK-OV-3 ovarian and in the experiment with SK-MEL-5 melanoma was above 100 µM each time. Also, the TGI in the experiment with A549 NSCLC, in the experiment with LOX IMVI melanoma, in the experiment on NCI-H460 lung, in the experiment on M14 melanoma, in the experiment on NCI-H23 lung and in the experiment with ACHN renal was above 100 µM throughout. Further, the TGI in the experiment with UO-31 renal, in the experiment on RPMI-8226 leukemia, with SR leukemia and with CCRF-CEM leukemia was above 100 µM throughout.

Regarding `COc1ccc(CN2C(=O)C(=O)N(C)C2=O)c2ccccc12`, the TGI in the experiment with T-47D breast, in the experiment with U251 CNS, in the experiment with IGROV1 ovarian, with OVCAR-5 ovarian, with HCC-2998 colon and in the experiment on SK-OV-3 ovarian was above 10 µM in each case. The TGI in the experiment with SK-MEL-5 melanoma, in the experiment on A549 NSCLC, in the experiment on LOX IMVI melanoma, in the experiment with NCI-H460 lung, in the experiment on M14 melanoma and with NCI-H23 lung was above 10 µM in each case. For the same compound, the TGI in the experiment with MDA-N, in the experiment with ACHN renal, with UO-31 renal, in the experiment on RPMI-8226 leukemia, in the experiment on MDA-MB-435 and in the experiment with PC-3 prostate was above 10 µM in each case. Moreover, the TGI with SR leukemia and in the experiment with CCRF-CEM leukemia was above 10 µM in each case.

Regarding `CCc1cc(=O)n(/C(C)=C/c2ccccc2)n1C`, the TGI with T-47D breast, with U251 CNS, with IGROV1 ovarian, with OVCAR-5 ovarian, in the experiment with HCC-2998 colon and in the experiment with SK-OV-3 ovarian was above 100 µM throughout. Besides, the TGI in the experiment on SK-MEL-5 melanoma, in the experiment on A549 NSCLC, in the experiment with LOX IMVI melanoma, in the experiment with NCI-H460 lung, in the experiment on M14 melanoma and in the experiment on NCI-H23 lung was above 100 µM throughout. Also, the TGI in the experiment with MDA-N, in the experiment with ACHN renal, in the experiment with UO-31 renal, in the experiment on RPMI-8226 leukemia, in the experiment on MDA-MB-435 and in the experiment with PC-3 prostate was above 100 µM each time. In the experiment on CCRF-CEM leukemia, this compound showed a TGI above 100 µM.

For the compound `COc1ccc(/C(C)=N/NC(=S)N(C)C)c(O)c1`, the TGI in the experiment with T-47D breast is above 100 µM; in the experiment with U251 CNS it was above 100 µM; with IGROV1 ovarian, 23.2 µM; in the experiment on OVCAR-5 ovarian, above 100 µM; in the experiment on HCC-2998 colon it was above 100 µM; in the experiment with SK-OV-3 ovarian it was above 100 µM. For the same compound, the TGI in the experiment on SK-MEL-5 melanoma is above 100 µM; in the experiment on A549 NSCLC, above 100 µM; in the experiment with LOX IMVI melanoma, 12.4 µM; in the experiment on NCI-H460 lung it was above 100 µM; in the experiment with M14 melanoma, above 100 µM; in the experiment on NCI-H23 lung it was 72.9 µM. For the same compound, the TGI in the experiment with MDA-N was above 100 µM; in the experiment with ACHN renal it was above 100 µM; with UO-31 renal, 36 µM; with RPMI-8226 leukemia, above 100 µM; in the experiment on MDA-MB-435, above 100 µM; with PC-3 prostate, above 100 µM. For the same compound, the TGI with SR leukemia was above 100 µM; in the experiment with CCRF-CEM leukemia it was 87.9 µM.

For the origin of these results see PubChem BioAssay (NCI).
